Article PMC9655618 (Cancers, 2022)

Legend:
[1] = test system: glucocorticoid receptor (GR)-dependent transcriptional activity, MDA-kb2 cells; test: GR-mediated transcription, luciferase reporter in MDA-kb2 cells (dexamethasone); settings: 100 nM Dexamethasone; compounds 1–10 µM
[2] = target: T1, ERα protein in T47D E2-deprived cells (Homo sapiens, UniProt P03372); test: Immunofluorescence (confocal microscopy); type: cell-based; settings: 5 µM 24 h, then E2 1 nM 30 min
T1 construct: ERα protein expression were also explored in T47D E2-deprived BC cells; endogenous in cells; host or cells: T47D (steroid-deprived)
Procedure: T47D cells were seeded with steroid-deprived FBS (10% DCC-FBS) RPMI medium supplemented with L-Glutamine/HEPES/sodium pyruvate/PEST. Then, cells were seeded at 175,000 cells/well in 5% DCC-FBS in 6-well plates containing 22 × 22 mm coverslips (Menzelgläser, vWR, Radnor, PA, USA). […] After this, cells were washed with PBS, fixed in 4% paraformaldehide (PFA; Sigma-Aldrich, St. Louis, MO, USA) for 15 min, blocked-permeabilized in PBS-0.5% BSA-0.1% Triton X-100 (Thermo Scientific, Waltham, MA, USA) for 1 h, and, finally, incubated with mouse ERα (Santa Cruz Biotech, CA, USA) and rabbit β-catenin (C2206 Sigma-Aldrich, St. Louis, MO, USA) primary antibodies in the same blocking solution overnight at 4 °C within a hand-made humid chamber. After three washing with PBS-0.5% BSA-0.1% Triton X-100 (Thermo Scientific, Waltham, MA, USA), cells were incubated with anti-mouse Alexa fluor 488 (Life Technologies, CA, USA) or anti-rabbit Alexa 647 (Life Technologies, Carlsbad, CA, USA) secondary antibodies, containing DAPI (4′,6-diamidino-2-phenylindole; Sigma-Aldrich, St. Louis, MO, USA), for 1 h at room temperature. Finally, slides were mounted with Fluormount-G® (Thermo Fisher Scientific, Waltham, MA, USA), and cells were visualized using a confocal microscope Zeiss LSM 800 (Carl Zeiss AG, Jena, Germany). The fluorescent signal was quantified by using a segmentation method for image analysis.

[3] = test system: alkaline phosphatase (ALP) activity in Ishikawa cells; test: Alkaline phosphatase assay; type: cell-based, human; settings: for effect on E2-induced ALP activity: E2 10 nM, 48 h and 72 h
Procedure: Human endometrium cells ([…]) were cultured in MEM without phenol red with Earle's Salts culture, which was supplemented with estrogen-deprived 10 DCC-FBS du-ring 5 days. […] Cells were washed with ice-cold PBS, and Alkaline Phosphatase (ALP) activity was measured by using ALP Assay Kit (Abcam, Cambridge, MA, USA). The substrate p-nitrophenyl phosphate (pNPP) and the ALP enzyme were used to detect ALP activity by the analysis of the optical density at 405 nm in the iMark microplate Reader (Bio-Rad, Irvine, CA, USA). […] Protein concentration was quantified with the bicinchoninic acid assay (BCA) kit (Bio-Rad).

MCF-10A cells [4] = test: Drug combination assay with 4-OHTAM (MTT); settings: Homo sapiens, 72 h, read-out: IC50, cell viability inhibition
Procedure: Cells were seeded at 5000 and 7500 cells, per well, respectively, and cell viability was assessed by MTT assays 72 h after treatment. Briefly, cells were incubated with constant ratio combinations of indicated test compounds by doubling dilutions of the individual drugs over a wide range of concentrations [43]. […] Dose-effect curves of the individual or combined compounds were plotted and assessed by the median effect method of Chou and Talalay [43] using Calcusyn software 2.0 (Biosoft, Cambridge, UK), thus obtaining the combination index (CI) values. CI values less than 1, equal to 1, and greater than 1 indicated synergism, addition, and antagonism, respectively.

BT-549 cells = test: MTT cell viability assay; type: cell-based, human; settings: Homo sapiens, BT-549, 72 h, 10%FBS growth media
Procedure: (§1) Straightforward, the tetrazolium salt 3-(4,5-methyltiazol-2yl-)-2,5diphenyl-tetrazolium bromide (MTT) (Applichen, Darmstadt, Germany) was added to cells, incubated for 2–4 h at 37 °C, and lysed in 10% SDS.

MCF-7 cells = test: MTT cell viability assay; type: cell-based, human; settings: Homo sapiens, MCF7, 72 h, 10%FBS growth media
Procedure: as §1

MCF-10A cells [5] = test: MTT cell viability assay; type: cell-based, human; settings: Homo sapiens, MCF-10A, 72 h, 10%FBS growth media
Procedure: as §1

Ishikawa cells = test: MTT cell viability assay; type: cell-based, human; settings: Homo sapiens, Ishikawa, read-out: IC50 (μM) ISHIKAWA, 72 h, 10%FBS growth media
Procedure: as §1

Hs-578T cells = test: MTT cell viability assay; type: cell-based, human; settings: Homo sapiens, Hs-578T, 72 h, 10%FBS growth media
Procedure: as §1

MCF-7/BUS cells = test: MTT cell viability assay; type: cell-based, human; settings: Homo sapiens, MCF7/BUS; 72 h, 10%FBS growth media, MTT; read-out: IC50 (μM) MCF-7/BUS
Procedure: as §1

MDA-MB-231 cells = test: MTT cell viability assay; type: cell-based, human; settings: Homo sapiens, MDA-MB-231, 72 h, 10%FBS growth media
Procedure: as §1

SK-BR-3 cells = test: MTT cell viability assay; type: cell-based, human; settings: Homo sapiens, SK-BR-3, 72 h, 10%FBS growth media
Procedure: as §1

[6] = test system: androgen receptor (AR)-dependent transcriptional activity, MDA-kb2 cells; test: AR-mediated transcription, luciferase reporter in MDA-kb2 cells (testosterone); settings: 100 nM Testosterone; compounds 1–10 µM
PBMC = test: MTT cell viability assay; type: cell-based; settings: Homo sapiens, 72 h, 10%FBS growth media
Procedure: as §1

VERO cells = test: MTT cell viability assay; type: cell-based, monkey; settings: Primates, Vero, 72 h, 10%FBS growth media
Procedure: as §1

[7] = target: T2, ERα protein level in T47D cells (Homo sapiens, UniProt P03372); test: Immunoblotting; type: cell-based; settings: E2-non depleted T47D cells, 24, 48 and 72 h
T2 construct: from whole-cell extracts of T47D cells; endogenous in cells; host or cells: T47D
Procedure: Then, they were washed with ice-cold PBS supplemented with 1 mM ortovanadate and lysed with RIPA buffer containing protease and phosphatase inhibitors (Thermo Fisher Scientific, Waltham, MA, USA). Equal protein amounts were analyzed by SDS–PAGE, and transferred to nitrocellulose membranes (Thermo Fisher Scientific, Waltham, MA, USA), blocked with Tris-buffered saline/0.05% Tween 20 (TBS-T) containing 5% blotto (Merck, Darmstadt, Germany) or 5% BSA for total and phosphorylated proteins, respectively. Immunoblotting was carried out with mouse anti-ERα F-10 (Santa Cruz Biotech, Santa Cruz, CA, USA), rabbit total anti-STAT5 (Cell Signaling Technology, Leiden, The Netherlands) or mouse anti-polyubiquitin (EMD Millipore, Burlington, MA, USA). After washing, membranes were incubated with horseradish peroxidase-conjugated secondary antibodies (Bio-Rad) for 1 h at room temperature. The β-actin antibody (Santa Cruz Biotech, CA, USA) was used as the loading control. Finally, protein bands were visualized by using Clarity™ Western ECL Substrate (Bio-Rad) in the ChemiDoc XRS system (Bio-Rad) and were analyzed with Quantity One software (Bio-Rad).

| SMILES | effect on DEX-induced luciferase activity [1] | effect on ERα protein levels by confocal microscopy [2] | effect on E2-induced ALP activity [3] | ALP activity, % of E2-induced maximal activity (Emax) ([3]; absence of E2) | IC50 (MCF-10A cells [4]) | IC50 (BT-549 cells) | IC50 (MCF-7 cells) | IC50 (MCF-10A cells [5]) | IC50 (Ishikawa cells) | IC50 (Hs-578T cells) | IC50 (MCF-7/BUS cells) | IC50 (MDA-MB-231 cells) | IC50 (SK-BR-3 cells) | effect on T-induced luciferase activity [6] | IC50 (PBMC) | IC50 (VERO cells) | effect on ERα protein level [7] | Emax ([3]; Homo sapiens, Ishikawa, read-out: ALP activity, % of E2-induced maximal activity (Emax)) |
| --- | --- | --- | --- | --- | --- | --- | --- | --- | --- | --- | --- | --- | --- | --- | --- | --- | --- | --- |
| O=C1C(c2ccc([N+](=O)[O-])cc2)=CC(O)(c2ccccc2)N1Cc1ccccc1 (stereo not shown) [compound 35, 1-benzyl-5-hydroxy-3-(4-nitrophenyl)-5-phenyl-1H-pyrrol-2(5H)-one] | Neither 4-OHTAM nor compounds 32 or 35 displayed cross-activation | significantly decreased ERα protein levels both in nuclei and cytoplasmic compartments | inhibited E2-induced ALP activity | did not affect basal | > 0.56 µM | 4.19 µM | 2.59 ± 0.34 µM | 3.16 ± 0.09 µM | 1.29 ± 0.38 µM | 8.22 ± 1.78 µM | 2.64 ± 0.88 µM | 9.08 ± 0.93 µM | 2 ± 0.18 µM | Neither 4-OHTAM nor compounds 32 or 35 displayed cross-activation | 17.3 ± 6.48 µM | 9.61 ± 0.16 µM | dose-dependent (Figure 14B) decrease of ERα protein content | – |
| Cc1ccc(C2=CC(O)(c3ccccc3)N(Cc3ccccc3)C2=O)cc1C (stereo not shown) [compound 32, 1-benzyl-3-(3,4-dimethylphenyl)-5-hydroxy-5-phenyl-1H-pyrrol-2(5H)-one] | Neither 4-OHTAM nor compounds 32 or 35 displayed cross-activation | showed no effects | inhibited E2-induced ALP activity | – | 0.35 µM | 4.89 ± 0.96 µM | 2.54 ± 0.49 µM | 0.08 µM | 0.27 ± 0.09 µM | > 10 µM | 5.32 ± 2.09 µM | 7.63 ± 2.38 µM | 1.51 ± 0.09 µM | Neither 4-OHTAM nor compounds 32 or 35 displayed cross-activation | > 30 µM | 14.7 ± 1.31 µM | needed a longer time of cell exposure | 18% |
